In patent US10195209B2, “Anti-huLRRC15 antibody drug conjugates and methods for their use” (AbbVie Inc., priority 2015, dated 2019):

How the values were obtained:
[1] = test system: CTG-0241 (human osteosarcoma) patient-derived xenograft; assay: CTG-0241 patient-derived osteosarcoma xenograft model; type: in vivo, nu/nu mice
From the text: (§1) Female nu/nu mice were implanted unilaterally on the left flank region with CTG-0241 tumor fragments harvested from host animals, each implanted from a specific passage lot. When tumors reached approximately 250-350 mm^3, animals were matched by tumor volume into treatment and control groups and dosing initiated (Day 0).
In FIG. 18B, female nu/nu mice were implanted unilaterally on the left flank region with CTG-0241 tumor fragments harvested from host animals, each implanted from a specific passage lot. When tumors reached approximately 250-350 mm^3, animals were matched by tumor volume into treatment and control groups and dosing initiated (Day 0). Dosing with isotype mAb or ADCs was performed IP at 6 mg/kg on a Q4Dx6 (one dose given every 4 days for a total of 6 doses), while cisplatin was dosed IP Q7Dx3 (once every 7 days for a total of 3 doses) at 7.5 mg/kg, doxorubicin was dosed intravenously (IV) once daily at 1 mg/kg for 5 days, gemcitabine was dosed IP Q3Dx4 (every 3 days for a total of 4 doses) at 80 mg/kg, and ifosfamide was dosed IP QDx3 (one dose given every day for a total of 3 doses) at 120 mg/kg.

[2] = test system: CTG-1095 (human osteosarcoma) patient-derived xenograft; assay: CTG-1095 patient-derived osteosarcoma xenograft model; type: in vivo, NSG mice
From the text: as §1, with “NSG” for “nu/nu”, “CTG-1095” for “CTG-0241”
In FIG. 18C, female NSG mice were implanted unilaterally on the left flank region with CTG-1095 tumor fragments harvested from host animals, each implanted from a specific passage lot. When tumors reached approximately 150-300 mm^3, animals were matched by tumor volume into treatment and control groups and dosing initiated (Day 0). Dosing with isotype mAb or ADCs was performed IP at 12 mg/kg Q4Dx6 (one dose given every 4 days for a total of 6 doses), while cisplatin was dosed intraperitoneally Q7Dx2 (once every 7 days for a total of 2 doses) at 7.5 mg/kg.
In FIG. 18D, female NSG mice were implanted unilaterally on the left flank region with CTG-1095 tumor fragments harvested from host animals, each implanted from a specific passage lot. When tumors reached approximately 200 mm^3, animals were matched by tumor volume into treatment and control groups and dosing initiated (Day 0). Dosing with isotype mAb or ADCs was performed IP at 6 mg/kg on a Q4Dx6 (one dose given every 4 days for a total of 6 doses), while gemcitabine was dosed IP Q3Dx4 (every 3 days for a total of 4 doses) at 80 mg/kg.

[3] = test system: U118MG (glioblastoma) xenograft tumors; assay: U118MG glioblastoma xenograft model; type: in vivo, SCID mice
Experimental: For the experiments, ten million cells (U118MG) that were grown in vitro were inoculated subcutaneously per mouse into the right flank of female SCID mice. Tumors were size matched at˜100 mm^3, and dosed intraperitoneally (IP) Q6Dx2 (1 dose given every 6 days for a total of 2 doses) as shown in FIG. 14A. Measurements of the length (L) and width (W) of the tumors were taken via electronic caliper and the volume was calculated according to the following equation: V=L×W^2/2.
For the experiment, U118MG human glioblastoma cells were grown in vitro, and were inoculated subcutaneously (10 million cells per mouse) into the right flank of female SCID mice. Tumors were size matched at ˜150 mm^3, antibodies and immunoconjugates were administered IP Q4Dx6 (one dose give every 4 days for a total of 6 doses) at 10 or 6 mg/kg, respectively. At Day 165 post sizematch when tumors had regrown to ˜450 mm^3, animals were retreated with huM25-vcMMAE-DAR4 IP Q4Dx3 (one dose given every 4 days for a total of 3 doses) at 6 mg/kg.
Four preparations of huM25-vcMMAE that differed in their relative DAR profile (E2, E2/E4, E4 or DAR4) were tested for efficacy in U118MG tumors. […]
The potency of anti-huLRRC15 ADCs as compared to current standards of care was assessed in xenograft model U118MG (glioblastoma), and patient-derived xenograft models CTG-0241 osteosarcoma) and CTG-1095 (osteosarcoma). […]

[4] = Rat tolerability experiment; type: in vivo, Sprague Dawley wild type rats; details: single IV dose at MMAE equivalent levels, FIG. 16A
Experimental: The safety profiles of E2, E4 and E2/E4 preparations of huM25-vcMMAE ADCs were assessed in a rat tolerability experiment (FIGS. 16A, 16B). For the assay, Sprague Dawley wild type rats were dosed with a single IV dose at MMAE equivalent levels of each antibody drug conjugate. […] Double the protein antibody dose was delivered with equal amounts of MMAE, and improved survival for E2 was seen over E4. Fewer deaths occurred in the animals dosed with E2 than E4 ADCs, and the deaths that did occur happened later on Day 8. Broad drug distribution DAR4 has an MTD of 20 mg/kg.

[5] = test system: G292 clone A141B1 (osteosarcoma) cells; assay: In vitro cell killing assay (Cell TiterGlo), G292 clone A141B1; type: cell-based, human; details: G292 clone A141B1, 4 days
Experimental: (§2) In the in vitro cell killing assays, cells are seeded at 500-3000 cells per well into 96-well plates with varying concentrations ([…]) of antibodies and ADCs. The cells are incubated for 4 days in culture and then the percent cell viability relative to untreated cells is determined using Cell TiterGlo™ which measures ATP content within the treated cells.

[6] = test system: EBC-1 (squamous NSCLC) cells; assay: In vitro cell killing assay (Cell TiterGlo), huLRRC15-negative EBC-1; type: cell-based, human; details: huLRRC15-negative EBC-1, 4 days
Experimental: as §2

[7] = test system: RPMI-7951 (melanoma) cells; assay: In vitro cell killing assay (Cell TiterGlo), RPMI-7951; type: cell-based, human; details: RPMI-7951, 4 days
Experimental: as §2

[8] = test system: U118MG (glioblastoma) cells; assay: In vitro cell killing assay (Cell TiterGlo), U118MG; type: cell-based, human; details: 4 days, percent cell viability by Cell TiterGlo
Experimental: as §2
Preparation of the huM25-PBD-DAR2 ADC was accomplished according to the procedure described in Example 8.
FIG. 13E depicts the potent in vitro 4-day cell killing ability of anti-huLRRC15 ADC huM25-PBD-DAR2 as compared with the isotype control PBD DAR2 ADC in U118MG (glioblastoma) cells.

[9] = test system: human BM-MSC (Lonza) mesenchymal stem cells; assay: In vitro cell killing, human BM-MSC treated with TGFβ; type: cell-based; details: 10 ng/mL TGFβ, same doses
[10] = gemcitabine alone, 80 mg/kg IP Q3Dx4, FIG. 18D
[11] = ADC alone, 6 mg/kg IP Q4Dx6, FIG. 18D

N.N.[Cl][Pt][Cl] [cisplatin, reference compound]
TGImax ([1]; 7.5 mg/kg IP Q7Dx3, FIG. 18B): 44% | TGImax ([2]; 7.5 mg/kg IP Q7Dx2, FIG. 18C): 70%

COc1cccc2c1C(=O)c1c(O)c3c(c(O)c1C2=O)C[C@@](O)(C(=O)CO)C[C@@H]3O[C@H]1C[C@H](N)[C@H](O)[C@H](C)O1 [doxorubicin]
TGImax ([1]; 1 mg/kg IV once daily for 5 days, FIG. 18B): 27%

Nc1ccn([C@@H]2O[C@H](CO)[C@@H](O)C2(F)F)c(=O)n1 [gemcitabine, reference compound]
TGImax ([1]; 80 mg/kg IP Q3Dx4, FIG. 18B): 64% | TGD [2, 10]: 241% | TGImax [2, 10]: 84%

O=P1(NCCCl)OCCCN1CCCl (stereo not shown) [ifosfamide]
TGImax ([1]; 120 mg/kg IP QDx3, FIG. 18B): 10%

Cn1nnc2c(C(N)=O)ncn2c1=O [temozolomide, reference compound]
TGImax ([3]; 20 mg/kg orally daily for first 5 days of a 7-day cycle, two cycles, FIG. 18A): 67%

huM25-vcMMAE-E2: huM25-vcMMAE ADC preparation enriched in DAR2 by hydrophobic interaction chromatography
death, percentage of animals [4]: 25% | maximum tumor growth inhibition (TGImax) ([3]; MMAE-equivalent doses IP every seven days for three doses, FIG. 17): ≥ 84% | in vitro cell killing compared with isotype ADC [5]: superior to that seen with non-targeting isotype-vcMMAE ADCs | in vitro cell killing [6]: minimal cancer cell killing | in vitro cell killing compared with isotype ADC [7]: superior to that seen with non-targeting isotype-vcMMAE ADCs | in vitro cell killing compared with isotype ADC [8]: superior to that seen with non-targeting isotype-vcMMAE ADCs | TGImax ([1]; 6 mg/kg IP Q4Dx6, FIG. 14B/18B): 91% | TGImax ([2]; 12 mg/kg IP Q4Dx6, FIG. 14C/18C): 87% | TGD [2, 11]: 193% | TGImax [2, 11]: 75%

B1: huAD208.4.1-PBD-DAR2: anti-LRRC15 PBD ADC of huAD208.4.1, cross-reactive to human and mouse LRRC15 (conjugate)
VH: EVQLVQSGAEVKKPGSSVKVSCKASGFTFTDYYIHWVKQAPGQGLEWIGLVYPYIGGTNYNQKFKGKATLTVDTSTTTAYMEMSSLRSEDTAVYYCARGDNKYDAMDYWGQGTTVTVSS
VL: DIVLTQSPDSLAVSLGERATINCRASQSVSTSSYSYMHWYQQKPGQPPKLLIKYASSLESGVPDRFSGSGSGTDFTLTISSLQAEDVAVYYCEQSWEIRTFGGGTKVEIK
in vitro cell killing effect compared with isotype-PBD-DAR2 [9]: higher cell killing effect than isotype-PBD-DAR2
